# Test results as given in US6730521B1, “Chemical and biochemical assay method and apparatus” (The Technology Partnership PLC, priority 1999, dated 2004).
# Molecular target: T1, streptavidin (Streptomyces avidinii, UniProt P22629)
# T1 construct: purchased Dynal
# Assay: FITC-biotin binding to a single streptavidin-coated bead in a scanned droplet
# Conditions: 5 μl of 48 nM FITC-biotin plus 5 μl buffer with a single 2.8 μm streptavidin bead; equilibrium after 30 minutes
# Protocol: A 5 μl sample of a solution of 48 nM fluorescein isothiocyanate-labelled biotin (FITC-biotin) is added to 5 μl of a solution of buffer containing a single 2.8 μm diameter bead coated with streptavidin (obtained from Dynal). The sample was presented to the instrument for scanning as a 10 μl droplet on the surface of a glass microscope slide. Illumination and light collection was arranged from above the sample. The instrument was set to take fluorescent intensity measurements at 1 μm intervals across the sample in the x-direction with a line-to-line step of 2.2 μm in the y-direction. As the laser spot size was 6 μmm, this allowed for overlap between each scan line. The graphs plot the relative intensity (analogue-to-digital converter or ADC counts) against position (sample number) for several adjacent scan lines. Initially, the FITC-biotin has had insufficient time to diffuse to the streptavidin sites concentrated on the bead. The sample was scanned at intervals over the period of the experiment. It can be readily appreciated that the signal obtained from the illumination will be proportional to the number of molecules of label (FITC-biotin) in the path of the laser at each point. If, as in this case, the label is homogenous throughout the droplet then the signal at each point is proportional to the path length of the laser through the sample. […]
# T1 sequence (P22629 25-183): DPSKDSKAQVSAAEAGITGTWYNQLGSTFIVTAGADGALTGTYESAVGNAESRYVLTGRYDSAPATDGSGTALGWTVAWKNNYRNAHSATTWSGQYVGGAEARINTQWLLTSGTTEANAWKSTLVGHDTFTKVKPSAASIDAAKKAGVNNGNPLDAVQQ
substance,measurement,value
fluorescein isothiocyanate-labelled biotin [FITC-biotin],PVS/UVS signal ratio at equilibrium,approx. 6.1
